Experiments:
[1] = tested on: A375 cells; assay: A375 (BRAF) GI50 cell-based assay (Cell Titer-Glo); details: Homo sapiens, A-375, 72 hours, read-out: Assay 2: A375 (BRAF) GI50
Experimental: (§1) Alternatively, the following procedure can be used to measure cell-based activity. Test compounds were dissolved in DMSO in 10 mM stock. Cell Titer-Glo® 2.0 Luminescent cell viability assay reagent was purchased from Promega (Madison, Wis.). A375 and HCT116 cell lines were purchased from American Type Culture Collection (Manassas, Va.). For A375 cells, cell culture media was DMEM+10% FBS. For HCT116 cells, cell culture media was McCoy's 5A+10% FBS. All media were supplemented with 100 μg/mL of penicillin, and 100 μg/mL of streptomycin. Cultures were maintained at 37° C. in a humidified atmosphere of 5% CO2 and 95% air.
(§2) Test compounds were diluted in DMSO solution with 10-dose and 3-fold dilutions in a source plate starting at 10 mM. 25 nL of each test compound was delivered from the source plate to each well of the 384-well cell culture plates (T=Final) by Echo 550. 25 μL of culture medium containing 2000 of A375 or HCT116 cells was added to each of the wells in duplicates of the cell culture plates (T=0 and T=Final). 25 μL of Cell Titer Glo 2.0 reagent was added to each well of cell culture plate (T=0). The contents were mixed on an orbital shaker for 2 min and incubated at room temperature for 15 min to stabilize luminescent signal. Luminescence was recorded by Envision 2104 Multilabel Reader (PerkinElmer, Santa Clara, Calif.). The number of viable cells in culture was determined based on quantitation of the ATP present in each culture well. The cells in cell culture plate (T=Final) were incubated with the compounds at 37° C., 5% CO2 for 72 hours. 25 μL of Cell Titer Glo 2.0 reagent was added to each well. The contents were mixed on an orbital shaker for 2 min and incubated at room temperature for 15 min to stabilize luminescent signal. Luminescence was recorded by Envision 2104 Multilabel Reader (PerkinElmer, Santa Clara, Calif.). The number of viable cells in culture was determined based on quantitation of the ATP present in each culture well. The GI50 curves were plotted using the GraphPad Prism 4 program based on a sigmoidal dose-response equation Y=Bottom+(Top-Bottom)/(1+10^((Log EC50−X)*HillSlope)). All parameters in the equation were calculated by GraphPad Prism 4 program. […] Accordingly, GI50 is the value of 10^X, where X was calculated by the Curve Fitting Equation when Y=50 using Excel.
Assay 2 is the A375 (BRAF) GI50 (nM) cell-based assay as described in Example 41.

[2] = tested on: HCT116 cells; assay: HCT116 (Kras) GI50 cell-based assay (Cell Titer-Glo); details: Homo sapiens, HCT-116, 72 hours, read-out: Assay 3: HCT116 (Kras) GI50
Experimental: as §1, §2
Assay 3 is the HCT116 (Kras) GI50 (nM) assay as described in Example 41.

[3] = molecular target: MEK1 (Homo sapiens (Human), UniProt Q02750); assay: MEK Inhibition Assay-1 (33P-ATP, P81 filter-binding); details: assay of Example 38; read-out: Assay 1: biochemical MEK IC50
Sequence of MEK1 (Q02750 whole entry): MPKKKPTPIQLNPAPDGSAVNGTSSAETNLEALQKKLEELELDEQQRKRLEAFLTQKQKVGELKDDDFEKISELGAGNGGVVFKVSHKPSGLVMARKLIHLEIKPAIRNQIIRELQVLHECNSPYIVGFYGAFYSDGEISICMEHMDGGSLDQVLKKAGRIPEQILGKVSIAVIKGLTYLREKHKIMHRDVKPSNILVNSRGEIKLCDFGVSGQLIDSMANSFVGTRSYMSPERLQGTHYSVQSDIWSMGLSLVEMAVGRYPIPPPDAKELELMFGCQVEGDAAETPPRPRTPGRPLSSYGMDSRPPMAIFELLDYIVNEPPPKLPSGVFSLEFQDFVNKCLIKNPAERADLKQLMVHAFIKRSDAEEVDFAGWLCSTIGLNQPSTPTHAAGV
Experimental: The following procedure can be used to measure biochemical activity. MEK1 inhibitory activity of compounds were tested using the following procedure. […] Nat Biotechnol. 2011, 29(11), 1039-45.
• Reaction buffer: 20 mM Hepes (pH 7.5), 10 mM MgCl2, 1 mM EGTA, 0.02% Brij35, 0.02 mg/mL BSA, 0.1 mM Na3VO4, 2 mM DTT, 1% DMSO • Enzyme: MEK1, Invitrogen cat #PV3303 • N-terminal His-tagged recombinant human full length protein, expressed in insect cells. Activated in vitro by RAF1. MW=49.2 kDa, GenBank Accession No. NP_002746. • Substrate: 5 μM ERK2 (K52R), • Kinase-dead mutant, (GenBank Accession No. NM_0011949), aa2-358 with N-terminal His6 tag, MW=43.63 kDa, expressed in E. coli.
The substrate was prepared in freshly prepared Reaction Buffer. The kinase was delivered into the substrate solution and gently mixed. Test compounds were delivered in 100% DMSO into the kinase reaction mixture by Acoustic technology (Echo550; nanolitter range), and incubated for 20 min at room temperature. ^33P-ATP was delivered into the reaction mixture to initiate the reaction. The reaction mixture was incubated for 2 hours at room temperature. Kinase activity was detected by P81 filter-binding method.
Assay 1 is the biochemical MEK IC50 (nM) assay as described in Example 38.

| Compound | GI50 [1] | GI50 [2] | IC50 [3] |
| --- | --- | --- | --- |
| N#Cc1ccc(C(=O)NOCCO)c(Nc2ccc(I)cc2F)c1 [Compound 1.010] | ≤ 500 nM | ≤ 750 nM | ≤ 150 nM |
| N#Cc1ccc(C(=O)NOCCO)c(Nc2ccc(I)cc2F)c1F [Compound 1.030, 4-cyano-3-fluoro-2-((2-fluoro-4-iodophenyl)amino)-N-(2-hydroxyethoxy) benzamide] | ≤ 500 nM | ≤ 750 nM | ≤ 150 nM |
| N#Cc1ccc(C(=O)NOCC2CC2)c(Nc2ccc(I)cc2F)c1F [Compound 1.031] | ≤ 500 nM | 750 to 2000 nM | ≤ 150 nM |

Reference: patent publication US11572344B2, “Cyanoaryl-aniline compounds for treatment of dermal disorders” (NFlection Therapeutics, Inc., priority 2018, dated 2023)
